Results: publication PMC6804243, “Small-Molecule Inhibition of UBE2T/FANCL-Mediated Ubiquitylation in the Fanconi Anemia Pathway” (ACS Chemical Biology, 2019)
“Also recorded” adds a separate entry of the source. Read-outs that look alike come from different tables or passages of the source.

Assays:
UBE1 = test system: T1, UBE1; assay: Gel-based ubiquitylation assay (UBE2T/GST-FANCLRING), autoubiquitylation of UBE1; assay type: biochemical; conditions: compound 100 μM; Western blot probed for biotin
T1 construct: purchased Boston Biochem

UBE2D1 / GST-RNF8 = test system: T2, UBE2D1 / GST-RNF8; assay: Gel-based ubiquitylation assay, E2 = UBE2D1, E3 = GST-RNF8; assay type: biochemical; conditions: 10 min at 37 °C, Western blot
T2 construct: His6 (N); made in house; host or cells: E. coli Rosetta (DE3)
Procedure: (§1) Figure 2 Gel-based ubiquitylation assays with confirmed HTRF hits. […] Western blots (WB) probed for GST or biotin as labeled. Reactions contained 20 nM His6-UBE1, 50 nM E2, 250 nM GST-E3, 500 nM biotinylated ubiquitin: (a) E2 = UBE2T, E3 = GST-FANCLRING, 30 min of reaction at 37 °C; (b) E2 = UBE2D1, E3 = GST-FANCLRING, 30 min of reaction at 37 °C; and (c) E2 = UBE2D1, E3 = GST-RNF8, 10 min of reaction at 37 °C.
A further ubiquitylation assay was performed with an alternative E3, RNF8, which also plays important roles in the DDR.[14] In contrast to GST-FANCLRING, long polyubiquitin chains were attached to GST-RNF8 by UBE2D1 (Figure 2c).
(§2) Purified protein was concentrated using a Vivaspin-6 concentrator with a 10 kDa MW cut-off (Vivascience) and flash-frozen in small aliquots for storage at […]
(§3) Cy5 labelling of ubiquitin. To a 5 mg/mL solution of recombinant human ubiquitin (Boston Biochem) in 0.1 M NaHCO3 pH 8.3, was added a 4-fold molar excess of Cyanine5 NHS ester (Lumiprobe). The reaction was incubated at 23 °C for 4 hours in the dark. The protein was separated from unreacted dye by passage through a PD-10 desalting column (GE Healthcare) equilibrated with PBS. Purified protein was concentrated using a Vivaspin-6 concentrator with a 3 kDa MW cut-off (Vivascience) and flash-frozen in small aliquots for storage […]
(§4) Homogeneous Time-Resolved Fluorescence (HTRF) Assay. GST-FANCLRING (200 nM) was incubated with anti-GST Tb (CisBio, #61GSTTL) (2.5 ng final) at room temperature for 30 minutes in assay buffer (50 mM Tris-HCl pH 8.0, 1 mM TCEP, 5 mM MgCl2, 0.005% Tween-20). Meanwhile, 10 μL of UBE2T in assay buffer (or assay buffer alone for no enzyme controls) was incubated in a white 384-well plate (Corning) with 20 nL DMSO or compound in DMSO. After 30 minutes, the GST-RINGRING solution was added to an equal volume solution containing His-UBE1 (Boston Biochem) (16 nM), Cy5-ubiquitin (400 nM), ATP (0.8 mM) in assay buffer. 10 μL of this solution was immediately added to each well of the 384 -well plate containing UBE2T or buffer. F inal concentrations: His -UBE1 (4 nM), UBE2T (6 nM), GST -RINGRING (50 nM), Cy5-ubiquitin (100 nM), ATP (0.2 mM), compound (10 or 20 μM) in 0.1 %
(§5) (v/v) DMSO. After a 10 minute incubation at 23 °C, 5 µL of a 50 mM EDTA solution were added to each well to stop the reaction. Signal was measured at λEx 340 nm and λEm 665 nm and 620 nm using a PHERAstar FS plate reader
(§6) (BMG Labtech). A ratio was calculated as [λEm(665)/λEm(620)] × 104 for each well and this was used to determine the percent inhibition for test compounds.
(§7) Gel-based ubiquitylation assays. Assays were carried out in a total volume of 10 µL containing 20 nM His6-UBE1 (Boston Biochem), 50 nM UBE2T, 250 nM GST-E3 and 500 nM biotinylated ubiquitin (Boston Biochem) in buffer (50 […]
(§8) Reaction mixtures were incubated for the indicated time at 37 °C and stopped by the addition of 2X reducing SDS -PAGE sample buffer, separated on NuPAGE Novex 4 –12% Bis/Tris gradient gels (Invitrogen) and visualized by Western blotting using the indicated antibodies (Table S3).
Cell culture. U2OS cells were cultured at 37 °C in a humidified atmosphere and 5% (v/v) CO2 in Dulbecco's Modified Eagle Medium (DMEM; Sigma-Aldrich) supplemented with 10% (v/v) fetal bovine serum (FBS), 100 units/ml of penicillin, […] of streptomycin and 292 μg/mL L-glutamine.
Cell extract preparation and immunoblotting. U2OS cells were lysed in buffer containing 50 mM Tris-HCl pH 7.5, 2% SDS, 10 mM NEM, cocktail protease inhibitor (Roche) and phosphatase inhibitor cocktail followed by sonication 100 µg of extracts were boiled for 5 mins at 95 °C in 5X loading buffer and loaded onto NuPAGE Novex 4–12% Bis/Tris gradient gels
(Invitrogen), or NuPAGE Novex 3-8% Tris/Acetate gradient gels (Invitrogen) for detection of mUb-FANCD2. After separation the gels were transferred to PVDF and the membranes were blocked with Tris-buffered saline containing 0.1% (v/v) Tween-20 (TBST) and 5% (v/v) bovine serum albumin (BSA) and […]

UBE2D1 / GST-FANCLRING = test system: T3, UBE2D1 / GST-FANCLRING; assay: Gel-based ubiquitylation assay, E2 = UBE2D1, E3 = GST-FANCLRING; assay type: biochemical; conditions: 30 min at 37 °C, Western blot
T3 construct: the RING domain (residues 275–375) of the E3 FANCL (FANCLRING); His6 (N); made in house; host or cells: E. coli Rosetta (DE3)
Procedure: as §1
(§9) In order to explore the selectivity of CU1, CU2, CU9, CU10, and CU12, we conducted a counter-screen against other E2 and E3 combinations. Since members of the UBE2D family of E2s are known to ubiquitylate multiple substrates in vitro,[13] a ubiquitylation assay featuring UBE2D1 and GST-FANCLRING was performed. With UBE2D1, multiple ubiquitylated GST-FANCLRING species could be observed (Figure 2b).
as §2, §3, §4, §5, §6, §7, §8
Cell culture. […]

[1] = target: T4, UBE2T/FANCLRING (ubiquitylation of GST-FANCLRING) (Homo sapiens, UniProt Q9NW38); assay: biochemical
T4 sequence (Q9NW38 275-375 limits assumed): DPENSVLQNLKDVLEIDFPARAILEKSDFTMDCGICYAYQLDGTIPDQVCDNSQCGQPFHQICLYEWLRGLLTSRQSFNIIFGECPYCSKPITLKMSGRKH
Source text: To identify small-molecule inhibitors of the FA pathway, we developed a high-throughput screen (HTS) compatible assay based on the FA ubiquitylation cascade (see Figure 1a, as well as Figure S1 in the Supporting Information). Given the complexity of the full FA ubiquitylation cascade, we constructed a simplified ubiquitylation reaction that would be robust for HTS purposes yet still provide many relevant protein species for small molecules to interact with. The recombinant protein assay developed used homogeneous time-resolved fluorescence (HTRF) and contained Cy5-labeled ubiquitin, the E1 enzyme UBE1, the E2 enzyme UBE2T, and the RING domain (residues 275–375) of the E3 FANCL (FANCLRING). FANCLRING was used as a surrogate substrate for ubiquitylation in the absence of the FA core and FANCD2/FANCI complexes.
Figure 1 Screening for inhibitors of the FA pathway. (a) Schematic of the HTRF ubiquitylation assay. Ubiquitylation of GST-tagged E3 (FANCLRING) by the E2 (UBE2T) places Cy5-labeled ubiquitin in close proximity to the anti-GST Tb cryptate. Excitation of the Tb cryptate donor results in FRET to the Cy5 acceptor. Simultaneous monitoring of the donor emission (620 nm) and acceptor emission (665 nm) allows for determination of the 665/620 ratio. (b) HTRF screen results showing average inhibition (n = 2) produced by compounds at 20 μM (in-house diversity library; 10 111 compounds) and 10 μM (Selleckchem epigenetic library; 119 compounds). Numbers given in parentheses represent the number of compounds per inhibition threshold.
as §2, §3, §4, §5, §6
Gel-based ubiquitylation assays. Assays were carried out in a total volume of 10 µL containing 20 nM His6-UBE1 (Boston Biochem), 50 nM UBE2T, 250 nM GST-E3 and 500 nM biotinylated ubiquitin (Boston Biochem) in buffer (50

UBE2T / GST-FANCLRING = test system: T5, UBE2T / GST-FANCLRING; assay: Gel-based ubiquitylation assay, E2 = UBE2T, E3 = GST-FANCLRING; assay type: biochemical; conditions: compound 100 μM, 30 min at 37 °C, Western blot
T5 construct: the RING domain (residues 275–375) of the E3 FANCL (FANCLRING); His6 (N); made in house; host or cells: E. coli Rosetta (DE3)

UBE2D1 = test system: T6, UBE2D1; assay: Gel-based ubiquitylation assay (UBE2D1/GST-FANCLRING), ubiquitylated UBE2D1 species; assay type: biochemical; conditions: E2 = UBE2D1, E3 = GST-FANCLRING; 30 min at 37 °C
T6 construct: His6 (N); made in house; host or cells: E. coli Rosetta (DE3)
Procedure: as §1, §9, §2
Cy5 labelling of ubiquitin. […]
Homogeneous Time-Resolved Fluorescence (HTRF) Assay. […]
(v/v) DMSO. […] Signal was measured at λEx 340 nm and λEm 665 nm and 620 nm using a PHERAstar FS plate reader
(BMG Labtech). A ratio was calculated as [λEm(665)/λEm(620)] × 104 for each well and this was used to determine the percent inhibition for test compounds. […]

UBE2T = test system: T7, UBE2T; assay: Gel-based ubiquitylation assay (UBE2T/GST-FANCLRING), blot probed for UBE2T; assay type: biochemical; conditions: compound 100 μM; Western blot probed for UBE2T
T7 construct: His6 (N); made in house; host or cells: E. coli Rosetta (DE3)

**Q.** What does the source list for `O=C(CCc1ccco1)NS(=O)(=O)c1cccc2ncccc12` [CU10]?
**A.** autoubiquitylation of UBE1 (UBE1): somewhat impaired the autoubiquitylation of UBE1; ubiquitylation of GST-RNF8 and UBE2D1 (UBE2D1 / GST-RNF8): appeared to inhibit the ubiquitylation of all species in the assay; ubiquitylation of GST-FANCLRING (UBE2D1 / GST-FANCLRING): essentially abolished the ubiquitylation of GST-FANCLRING; IC50 ([1]; library stock, 10-point dose-response, read-out: Primary screen IC50): 10.9 µM; LE ([1]; ligand efficiency = 1.4(–logIC50)/HAC): 0.35; IC50 ([1]; printed beside the structures in Figure S3, read-out: IC50 (Figure S3)): 2.1 µM; inhibition at 20 µM ([1]; read-out: Primary screen % Inhibition (20 M)): 93.8%; ubiquitylation of GST-FANCLRING (mUb-GST-FANCLRING band) (UBE2T / GST-FANCLRING): no ubiquitylation of FANCLRING was observed; formation of ubiquitylated UBE2D1 species (UBE2D1): prevented the formation of any ubiquitylated UBE2D1 species; ubiquitylation of UBE2T (UBE2T): prevented the ubiquitylation of UBE2T; also recorded: essentially completely inhibited
